The source of these data is US11919873B1, “1,3-benzothiazol-2-yl-N′-(benzoyloxy)ethanimidamide as an antitumor and antimicrobial compound” (priority 2023, dated 2024).

For series [1], the system named is Bacillus cereus, Staphylococcus aureus, Pseudomonas aeruginosa, Escherichia coli, Aspergillus flavus, Chrysosporium keratinophilum. The series is described as follows: Agar plate disc-diffusion antimicrobial test. It is filed as cell-based. The settings on record: 10 μL of 10 mg/mL in DMSO per disc, bacteria and fungi, result in words only. As to the method:
The agar plate disc-diffusion method was applied. Sterilized filter papers (6 mm in diameter) were wetted with 10 μL of a solution of each compound to be tested, containing 10 mg/mL in DMSO, and the discs were allowed to air dry. The discs were then placed onto the surface of agar plates (nutrient agar for bacteria and Sabouraud's dextrose agar for fungi) and seeded with the test organism. Each plate contained 15 mL of the agar medium, previously seeded with 0.2 mL of the broth culture of each organism pre-grown for 18 hours. The plates were incubated at 37° C. for 48 hours, and 72 hours for fungi. The inhibition zones were measured in mm. Discs impregnated with DMSO were used as a control, and its inhibition zone was subtracted from the tested compound actual inhibition zone. In particular, the present 1,3-benzothiazol-2-yl-N′-(benzoyloxy)ethanimidamide was screened against gram positive bacteria, namely Bacillus cereus and Staphylococcus aureus, and gram-negative bacterial strains, namely Pseudomonas aeruginosa and Escherichia coli, while the antifungal activity was screened against Aspergillus flavus and Chrysosporium keratinophilum.

In series [2] the test system is human osteosarcoma cells (MG-63). The series can be described thus: Assessment of cytotoxicity by SRB assay, MG-63. It is filed as cell-based. The note with it: 72 h, 0.01 μM to 100 μM, result in words only. The method, then:
(§1) The human prostate cancer cells (PC3) and human osteosarcoma cells (MG-63) were obtained from Nawah Scientific Inc. (Mokatam, Cairo, Egypt) and cultured in DMEM (Dulbecco's modified eagle's medium), Gibco, USA, supplemented with fetal bovine serum (FBS) at a concentration of 10% and 100 U/mL of penicillin and streptomycin (PS). The cells were incubated at 37° C. in a humidified environment that contained 5% CO2. Cells were seeded in 96-well plates as aliquots of 100 μL cell suspension and incubated in a complete media for 24 h. Afterward, cells were treated with 3-(4-chlorophenyl)-5-{[5-methyl-2-(propan-2-yl)phenoxy]methyl}-1,2,4-oxadiazole at diverse concentrations ranging from 0.01 μM to 100 μM for 72 h. Then, cells were fixed at 4° C. for one hour with 150 μL of 10% trichloroacetic acid (TCA). […] Then, 150 μL of Tris pH 10.5 (10 mM) was added, and the absorbance was measured at 540 nm using a BMG LABTECH®—FLUOstar Omega microplate reader (Ortenberg, Germany). Half maximal inhibitory concentrations (IC50) values were calculated for each experiment using GraphPad Prism 6 software. […] The inhibition was calculated using the following equation: Inhibition %=100−Average Viability The anticancer activity of 1,3-benzothiazol-2-yl-N′-(benzoyloxy)ethanimidamide was assessed against highly aggressive androgen-independent metastatic human prostate cancer cells (PC3) and osteosarcoma (MG-63) cells.
(In SRB staining, fixed cells bind dye roughly in proportion to their protein.)

The test system of series [3] is human prostate cancer cells (PC3). The series is described as follows: Assessment of cytotoxicity by SRB assay, PC3. It counts as cell-based. The settings on record: 72 h, 0.01 μM to 100 μM, result in words only. The method, then: as §1

In general, melting point refers to the temperature of the solid-liquid transition. With `N/C(Cc1nc2ccccc2s1)=N\OC(=O)c1ccccc1` [1,3-benzothiazol-2-yl-N′-(benzoyloxy)ethanimidamide], the melting point was in the range of 153 to 155 °C. For the same molecule, the “antimicrobial activity against different microbes” value in series [1] was “excellent antimicrobial activities”. For the same molecule, in series [2], the “antiproliferative activity against MG-63 cells” value is on record as “excellent antiproliferative activities”. Further, the “antiproliferative activity against PC3 cells” value in series [3] was “excellent antiproliferative activities”.
